Experimental data: patent US8247211B2, “Glycopeptide antibiotics” (American Cyanamid Company, priority 2001, dated 2012)
Values after ≈ are worked out from the molar mass of the structure shown.

Assays:
Test in all cases: In vitro antibacterial evaluation: minimum inhibitory concentration (MIC), broth dilution method
Type in all cases: cell-based
Details in all cases: broth dilution, 18 hours at 35° C.
Escherichia coli = test system: Escherichia coli
Streptococcus sp. = test system: Streptococcus sp.
How it was run: (§1)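 MIC by broth dilution in Mueller-Hinton II medium following NCCLS M7-A2. Inoculum was 5×10^5 CFU/mL and antibiotic was tested over 64-0.06 μg/mL. Gram-positive panel included clinical isolates resistant to methicillin, penicillin and/or vancomycin.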

Enterococcus sp. = test system: Enterococcus sp.
How it was run: as §1

Staphylococcus sp. = test system: Staphylococcus sp.
How it was run: as §1

## CC(c1ccccc1)C1NC(=O)CNC(=O)C(CO)NC(=O)C(C(O)C2CNC(=N)N2C2OC(CO)C(O)C(O)C2O)NC(=O)C(C(O)C2CNC(=N)N2)NC(=O)C(Cc2ccc3oc(SCc4ccc5ccccc5c4)nc3c2)NC1=O (stereo not drawn) [Example 46, Cyclo[3-[2-[(naphthylmethyl)thio]-1,3-benzoxazol-5-yl]alanyl-3-(2-iminoimidazolidin-4-yl)-seryl-3-(3-hexopyranosyl-2-iminoimidazolidin-4-yl)serylserylglycyl-β-methylphenylalanyl]]
Escherichia coli
  MIC Escherichia coli (ATCC 25922): 64 µg/mL (≈ 54.8 µM)
  MIC Escherichia coli (GC 4559): 64 µg/mL (≈ 54.8 µM)
  MIC Escherichia coli (GC 4560): 16 µg/mL (≈ 13.7 µM)
Streptococcus sp.; Streptococcus agalactiae (GC 4564)
  MIC Streptococcus agalactiae (GC 4564): 8 µg/mL (≈ 6.85 µM)
Streptococcus sp.; Streptococcus pneumoniae (ATCC 6301)
  MIC Streptococcus pneumoniae (ATCC 6301): 8 µg/mL (≈ 6.85 µM)
Streptococcus sp.; Streptococcus pneumoniae (GC 1894)
  MIC Streptococcus pneumoniae (GC 1894): 8 µg/mL (≈ 6.85 µM)
Streptococcus sp.; Streptococcus pneumoniae (GC 4565)
  MIC Streptococcus pneumoniae (GC 4565): 8 µg/mL (≈ 6.85 µM)
Streptococcus sp.; Streptococcus pyogenes (GC 4563)
  MIC Streptococcus pyogenes (GC 4563): 1 µg/mL (≈ 0.856 µM)
Streptococcus sp.
  MIC Streptococcus agalactiae (GC 4564): 8 µg/mL (≈ 6.85 µM)
  MIC Streptococcus pneumoniae (ATCC 6301): 8 µg/mL (≈ 6.85 µM)
  MIC Streptococcus pneumoniae (GC 1894): 8 µg/mL (≈ 6.85 µM)
  MIC Streptococcus pneumoniae (GC 4565): 8 µg/mL (≈ 6.85 µM)
  MIC Streptococcus pyogenes (GC 4563): 1 µg/mL (≈ 0.856 µM)
Enterococcus sp.; Enterococcus avium (GC 4558)
  MIC Enterococcus avium (GC 4558): 4 µg/mL (≈ 3.42 µM)
Enterococcus sp.; Enterococcus faecalis (ATCC 29212)
  MIC Enterococcus faecalis (ATCC 29212): 8 µg/mL (≈ 6.85 µM)
Enterococcus sp.; Enterococcus faecalis (GC 2242)
  MIC Enterococcus faecalis (GC 2242): 8 µg/mL (≈ 6.85 µM)
Enterococcus sp.; Enterococcus faecalis (GC 2691)
  MIC Enterococcus faecalis (GC 2691): 16 µg/mL (≈ 13.7 µM)
Enterococcus sp.; Enterococcus faecalis (GC 3059)
  MIC Enterococcus faecalis (GC 3059): 32 µg/mL (≈ 27.4 µM)
Enterococcus sp.; Enterococcus faecalis (GC 4552)
  MIC Enterococcus faecalis (GC 4552): 8 µg/mL (≈ 6.85 µM)
Enterococcus sp.; Enterococcus faecalis (GC 4553)
  MIC Enterococcus faecalis (GC 4553): 4 µg/mL (≈ 3.42 µM)
Enterococcus sp.; Enterococcus faecalis (GC 4554)
  MIC Enterococcus faecalis (GC 4554): 16 µg/mL (≈ 13.7 µM)
Enterococcus sp.; Enterococcus faecalis (GC 6189)
  MIC Enterococcus faecalis (GC 6189): 16 µg/mL (≈ 13.7 µM)
Enterococcus sp.; Enterococcus faecium (GC 2243)
  MIC Enterococcus faecium (GC 2243): 4 µg/mL (≈ 3.42 µM)
Enterococcus sp.; Enterococcus faecium (GC 4556)
  MIC Enterococcus faecium (GC 4556): 16 µg/mL (≈ 13.7 µM)
Enterococcus sp.; Enterococcus faecium (GC 4557)
  MIC Enterococcus faecium (GC 4557): 8 µg/mL (≈ 6.85 µM)
Enterococcus sp.
  MIC Enterococcus avium (GC 4558): 4 µg/mL (≈ 3.42 µM)
  MIC Enterococcus faecalis (ATCC 29212): 8 µg/mL (≈ 6.85 µM)
  MIC Enterococcus faecalis (GC 2242): 8 µg/mL (≈ 6.85 µM)
  MIC Enterococcus faecalis (GC 2691): 16 µg/mL (≈ 13.7 µM)
  MIC Enterococcus faecalis (GC 3059): 32 µg/mL (≈ 27.4 µM)
  MIC Enterococcus faecalis (GC 4552): 8 µg/mL (≈ 6.85 µM)
  MIC Enterococcus faecalis (GC 4553): 4 µg/mL (≈ 3.42 µM)
  MIC Enterococcus faecalis (GC 4554): 16 µg/mL (≈ 13.7 µM)
  MIC Enterococcus faecalis (GC 6189): 16 µg/mL (≈ 13.7 µM)
  MIC Enterococcus faecium (GC 2243): 4 µg/mL (≈ 3.42 µM)
  MIC Enterococcus faecium (GC 4556): 16 µg/mL (≈ 13.7 µM)
  MIC Enterococcus faecium (GC 4557): 8 µg/mL (≈ 6.85 µM)
Staphylococcus sp.
  MIC Coagulase Negative Staphylococcus (GC 4547): 4 µg/mL (≈ 3.42 µM)
  MIC Coagulase Negative Staphylococcus (GC 4548): 8 µg/mL (≈ 6.85 µM)
  MIC Coagulase Negative Staphylococcus (GC 4549): 2 µg/mL (≈ 1.71 µM)
  MIC Coagulase Negative Staphylococcus (GC 4551): 4 µg/mL (≈ 3.42 µM)
  MIC Staphylococcus aureus SMITH (GC 4543): 4 µg/mL (≈ 3.42 µM)
  MIC Staphylococcus haemolyticus (GC 4546): 8 µg/mL (≈ 6.85 µM)
Staphylococcus sp.; strain SMITH GC 4543
  MIC Staphylococcus aureus-SMITH (GC 4543): 4 µg/mL (≈ 3.42 µM)
